Reference: patent US8765728B2, “[1,5]-diazocin derivatives” (MelliTech, priority 2009, dated 2014)

These compounds were tested on Min6 cell (assay: Insulin secretion response of beta cell line to formula I compounds (insulin ELISA)). Conditions: rank according to % increase versus control at most effective dose.
Format: cell-based
In short: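 After compound or vehicle exposure, Min6 cells were held 2 h in glucose-free medium and preincubated 30 min at 37° C in glucose-free KRBH (pH 7.4, 0.1% BSA). They were then incubated 30 min at 37° C in KRBH with varying glucose. Secreted insulin and acid-ethanol-extracted intracellular insulin were measured by ELISA.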

Row | Compound | Insulin secretion (Min6 cell) Range 1 to 5
1 | O=C(COc1ccccc1)N1CCC(=O)N(C2CC2)Cc2cc(F)ccc21 [Compound 122, 5-cyclopropyl-8-fluoro-1-(2-phenoxyacetyl)-2,3,5,6-tetrahydrobenzo[b][1,5]diazocin-4(1H)-one] | 1 (1: 90-110% of control)
2 | O=C(c1ccco1)N1CCC(=O)N(C2CC2)Cc2cc(F)ccc21 [Compound 123, 5-cyclopropyl-8-fluoro-1-(furan-2-carbonyl)-2,3,5,6-tetrahydrobenzo[b][1,5]diazocin-4(1H)-one] | 1 (1: 90-110% of control)
3 | O=C1CCNc2ccc(OC(F)F)cc2CN1C1CC1 [Compound 124, 5-cyclopropyl-8-(difluoromethoxy)-2,3,5,6-tetrahydrobenzo[b][1,5]diazocin-4(1H)-one] | 1 (1: 90-110% of control)
4 | Cn1cnc(S(=O)(=O)N2CCC(=O)N(C3CC3)Cc3c2ccc2c3OCCO2)c1 [Compound 125, 11-cyclopropyl-7-((1-methyl-1H-imidazol-4-yl)sulfonyl)-2,3,8,9,11,12-hexahydro-[1,4]dioxino[2′,3′:3,4]benzo[1,2-b][1,5]diazocin-10(7H)-one] | 1 (1: 90-110% of control)
5 | O=C1CCN(C[C@@H](O)COc2ccc(Cl)cc2)c2ccc3c(c2CN1C1CC1)OCCO3 [Compound 126, (R)-7-(3-(4-chlorophenoxy)-2-hydroxypropyl)-11-cyclopropyl-2,3,8,9,11,12-hexahydro-[1,4]dioxino[2′,3′:3,4]benzo[1,2-b][1,5]diazocin-10(7H)-one] | 2 (2: 110-120% of control)
6 | COc1ccc2c(c1OC(F)F)CN(C1CC1)C(=O)CCN2 [Compound 127, 5-cyclopropyl-7-(difluoromethoxy)-8-methoxy-2,3,5,6-tetrahydrobenzo[b][1,5]diazocin-4(1H)-one] | 1 (1: 90-110% of control)
7 | O=C(c1cnccn1)N1CCC(=O)N(C2CC2)Cc2c1ccc1c2OCCO1 [Compound 128, 11-cyclopropyl-7-(pyrazine-2-carbonyl)-2,3,8,9,11,12-hexahydro-[1,4]dioxino[2′,3′:3,4]benzo[1,2-b][1,5]diazocin-10(7H)-one] | 1 (1: 90-110% of control)
8 | COc1ccc2c(c1OC(F)F)CN(C1CC1)C(=O)CCN2C(=O)c1cnccn1 [Compound 129, 5-cyclopropyl-7-(difluoromethoxy)-8-methoxy-1-(pyrazine-2-carbonyl)-2,3,5,6-tetrahydrobenzo[b][1,5]diazocin-4(1H)-one] | 2 (2: 110-120% of control)
9 | O=C(c1cnccn1)N1CCC(=O)N(C2CC2)Cc2cc(F)ccc21 [Compound 130, 5-cyclopropyl-8-fluoro-1-(pyrazine-2-carbonyl)-2,3,5,6-tetrahydrobenzo[b][1,5]diazocin-4(1H)-one] | 1 (1: 90-110% of control)
10 | O=C(c1ccccn1)N1CCC(=O)N(C2CC2)Cc2cc(Cl)ccc21 [Compound 131, 8-chloro-5-cyclopropyl-1-picolinoyl-2,3,5,6-tetrahydrobenzo[b][1,5]diazocin-4(1H)-one] | 1 (1: 90-110% of control)
11 | O=C(c1ccccn1)N1CCC(=O)N(C2CC2)Cc2c1ccc1c2OCCO1 [Compound 132, 11-cyclopropyl-7-picolinoyl-2,3,8,9,11,12-hexahydro-[1,4]dioxino[2′,3′:3,4]benzo[1,2-b][1,5]diazocin-10(7H)-one] | 1 (1: 90-110% of control)
12 | O=C(c1cnccn1)N1CCC(=O)N(C2CC2)Cc2cc(Cl)ccc21 [Compound 133, 8-chloro-5-cyclopropyl-1-(pyrazine-2-carbonyl)-2,3,5,6-tetrahydrobenzo[b][1,5]diazocin-4(1H)-one] | 2 (2: 110-120% of control)
13 | COc1ccc2c(c1OC(F)F)CN(C1CC1)C(=O)CCN2C[C@@H](O)COc1ccc(Cl)cc1 [Compound 134, (R)-1-(3-(4-chlorophenoxy)-2-hydroxypropyl)-5-cyclopropyl-7-(difluoromethoxy)-8-methoxy-2,3,5,6-tetrahydrobenzo[b][1,5]diazocin-4(1H)-one] | 1 (1: 90-110% of control)
14 | O=C1CCN(C[C@@H](O)COc2ccc(Cl)cc2)c2ccc(Cl)cc2CN1C1CC1 [Compound 135, (R)-8-chloro-1-(3-(4-chlorophenoxy)-2-hydroxypropyl)-5-cyclopropyl-2,3,5,6-tetrahydrobenzo[b][1,5]diazocin-4(1H)-one] | 1 (1: 90-110% of control)
15 | CS(=O)(=O)c1ccc(OC[C@H](O)CN2CCC(=O)N(C3CC3)Cc3cc(F)ccc32)cc1 [Compound 136, (R)-5-cyclopropyl-8-fluoro-1-(2-hydroxy-3-(4-(methylsulfonyl)phenoxy)propyl)-2,3,5,6-tetrahydrobenzo[b][1,5]diazocin-4(1H)-one] | 1 (1: 90-110% of control)
16 | CS(=O)(=O)c1ccc(OC[C@H](O)CN2CCC(=O)N(C3CC3)Cc3cc(Cl)ccc32)cc1 [Compound 137, (R)-8-chloro-5-cyclopropyl-1-(2-hydroxy-3-(4-(methylsulfonyl)phenoxy)propyl)-2,3,5,6-tetrahydrobenzo[b][1,5]diazocin-4(1H)-one] | 2 (2: 110-120% of control)
17 | Cc1cc(C(=O)N2CCC(=O)N(C3CC3)Cc3c2ccc2c3OCCO2)on1 [Compound 138, 11-cyclopropyl-7-(3-methylisoxazole-5-carbonyl)-2,3,8,9,11,12-hexahydro-[1,4]dioxino[2′,3′:3,4]benzo[1,2-b][1,5]diazocin-10(7H)-one] | 1 (1: 90-110% of control)
18 | Cc1cc(C(=O)N2CCC(=O)N(C3CC3)Cc3cc(Cl)ccc32)on1 [Compound 139, 8-chloro-5-cyclopropyl-1-(3-methylisoxazole-5-carbonyl)-2,3,5,6-tetrahydrobenzo[b][1,5]diazocin-4(1H)-one] | 1 (1: 90-110% of control)
19 | COc1ccc2c(c1OC(F)F)CN(C1CC1)C(=O)CCN2C(=O)c1cc(C)no1 [Compound 140, 5-cyclopropyl-7-(difluoromethoxy)-8-methoxy-1-(3-methylisoxazole-5-carbonyl)-2,3,5,6-tetrahydrobenzo[b][1,5]diazocin-4(1H)-one] | 3 (3: 120-140% of control)
20 | COc1ccc2c(c1)CN(C1CC1)C(=O)CCN2C(=O)c1cc(C)no1 [Compound 141, 5-cyclopropyl-8-methoxy-1-(3-methylisoxazole-5-carbonyl)-2,3,5,6-tetrahydrobenzo[b][1,5]diazocin-4(1H)-one] | 4 (4: 140-170% of control)
21 | Cc1cc(C(=O)N2CCC(=O)N(C3CC3)Cc3cc(OC(F)F)ccc32)on1 [Compound 142, 5-cyclopropyl-8-(difluoromethoxy)-1-(3-methylisoxazole-5-carbonyl)-2,3,5,6-tetrahydrobenzo[b][1,5]diazocin-4(1H)-one] | 4 (4: 140-170% of control)
